For data set [1], the system named is Klebsiella pneumoniae expressing VIM-1 (IHMA599644). The class given is cell-based. Particulars: with imipenem 1 μg/ml, 95% inhibition of bacterial growth; for Klebsiella pneumoniae MITC95: VIM-1 (IHMA599644). The procedure, abridged: (§1)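 Colonies from overnight 35 °C blood-agar cultures were suspended in saline, diluted 1:100 into 1.1× CAMHB and exposed to test compound with or without imipenem at 1 μg/ml. After 22–24 h at 35 °C, absorbance was read to find the concentration restoring imipenem susceptibility.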

For data set [2], the system named is Serratia marcescens expressing IMP-1 (CL5741). The class given is cell-based. The settings on record: with imipenem 1 μg/ml, 95% inhibition of bacterial growth; for Serratia marcescens MITC95: IMP-1 (CL5741). The procedure, abridged:
as §1

In data set [3] the test system is Escherichia coli expressing NDM-1 (CLB30005, CLB30016). Type of data set: cell-based. Particulars: with imipenem 1 μg/ml, 95% inhibition of bacterial growth; for Escherichia coli MITC95: NDM-1 (CLB30016). The procedure, abridged:
as §1

Data set [4] deals with P. aeruginosa expressing IMP-1, efflux− (MB9799). In words: Efflux: concentration of MBL inhibitor which restores susceptibility to imipenem. Type of data set: cell-based, Pseudomonas aeruginosa. The settings on record: imipenem at 2 μg/mL, in the presence of a class A, C, D serine β-lactamase inhibitor closely related to relebactam. An excerpt: (§2) The strain background is Pseudomonas aeruginosa PAO1.

In data set [5] the target is NDM-1 (Klebsiella pneumoniae, UniProt C7C422). In words: biochemical. Particulars: CCF2-FA substrate, 2 hours at 25° C; read-out: NDM-1 IC50. Type of data set: biochemical. Here is the method:
(§3) Enzyme Activity: Determination of IC50
(§4) The Class B enzyme activities were measured in the presence of the test inhibitor in a fluorescence assay against a commercially available substrate consisting of a cephalosporin core linking 7-hydroxycoumarin to fluorescein (CCF2-FA). […] In a 384-well microplate, the test inhibitor was incubated with the metallo-β-lactamase enzyme and the substrate for 2 hours at 25° C. […] The IC50 value was determined from semi-logarithmic plots of enzyme inhibition versus inhibitor concentration, with a curve generated using a 4-parameter fit.

The target in data set [6] is IMP-1 (Serratia marcescens, UniProt P52699). In words: biochemical. Type of data set: biochemical. The settings on record: CCF2-FA substrate, 2 hours at 25° C; read-out: IMP-1 IC50. The procedure: as §3, §4
The target of data set [7] is VIM-1 (Pseudomonas aeruginosa (strain ATCC 15692 / DSM 22644 / CIP 104116 / JCM 14847 / LMG 12228 / 1C / PRS 101 / PAO1), UniProt A0A0F7KYQ8). In words: biochemical. The settings on record: CCF2-FA substrate, 2 hours at 25° C. The procedure, abridged: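 Fluorescence assay, CCF2-FA substrate (cephalosporin core linking 7-hydroxycoumarin to fluorescein); inhibitor + MBL + substrate, 2 h, 25° C. IC50 by 4-parameter fit, semi-log plot.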

The test system of data set [8] is P. aeruginosa expressing IMP-1, efflux+ (MB9798). The class given is cell-based, Pseudomonas aeruginosa. The settings on record: for P. aeruginosa expressing IMP-1, efflux+ (MB9798) MITC95: imipenem at 2 μg/mL, in the presence of a class A, C, D serine β-lactamase inhibitor closely related to relebactam; for Efflux ratio: ratio MITC95 PA_9798/MITC95 PA_9799.
From the text: as §2

SMILES strings stand for the structures. pIC50: −log10 of the molar value.

Sequence of NDM-1 (C7C422 whole entry, looked up, species assumed): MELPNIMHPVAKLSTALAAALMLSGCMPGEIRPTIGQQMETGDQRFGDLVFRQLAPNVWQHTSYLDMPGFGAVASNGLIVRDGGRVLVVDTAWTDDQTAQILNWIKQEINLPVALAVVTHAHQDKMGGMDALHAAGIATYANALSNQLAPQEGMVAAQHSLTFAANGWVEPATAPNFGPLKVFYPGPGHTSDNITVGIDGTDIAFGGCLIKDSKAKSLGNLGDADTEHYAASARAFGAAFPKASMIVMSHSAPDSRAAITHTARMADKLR
Sequence of IMP-1 (P52699 whole entry, looked up, species assumed): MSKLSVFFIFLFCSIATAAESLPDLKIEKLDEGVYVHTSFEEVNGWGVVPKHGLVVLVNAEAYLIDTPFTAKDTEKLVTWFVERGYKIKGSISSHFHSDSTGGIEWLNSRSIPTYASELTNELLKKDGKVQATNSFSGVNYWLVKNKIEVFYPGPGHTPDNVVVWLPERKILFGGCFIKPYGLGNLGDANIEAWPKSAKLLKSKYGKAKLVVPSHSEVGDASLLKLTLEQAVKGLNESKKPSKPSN

As to `Nc1nc2c(-c3ccc(S(=O)(=O)C4CN(CCO)C4)c(S(N)(=O)=O)c3-c3nn[nH]n3)cccc2[nH]1` [Example 53, 3-(2-amino-1H-benzo[d]imidazol-4-yl)-6-(1-(2-hydroxyethyl)azetidin-3-ylsulfonyl)-2-(2H-tetrazol-5-yl)benzenesulfonamide], the “Klebsiella pneumoniae expressing VIM-1 (IHMA599644) MITC95” value in data set [1] was found to be 12.5 µM. Also, the “Serratia marcescens expressing IMP-1 (CL5741) MITC95” value in data set [2] is 6.25 µM. The “Escherichia coli expressing NDM-1 (CLB30016) MITC95” value in data set [3] worked out at 12.5 µM. For the same compound, the “P. aeruginosa expressing IMP-1, efflux− (MB9799) MITC95” value in data set [4] was 6.25 µM. Moreover, the pIC50 (in general, −log10 of the IC50, conventionally taken in molar units) was 9.34 in data set [5], 8.21 in data set [6] and 8.81 in data set [7]. Besides, in data set [8], the “P. aeruginosa expressing IMP-1, efflux+ (MB9798) MITC95” value is 12.5 µM. Also, the Efflux ratio in data set [8] was 2.00.

For `Nc1nc2cccc(-c3ccc(S(=O)(=O)[C@H]4CCNC4)c(S(N)(=O)=O)c3-c3nn[nH]n3)c2[nH]1` [Example 182, 3-(2-amino-3H-benzo[d]imidazol-4-yl)-6-((S)-pyrrolidin-3-ylsulfonyl)-2-(2H-tetrazol-5-yl)benzenesulfonamide], the “Klebsiella pneumoniae expressing VIM-1 (IHMA599644) MITC95” value in data set [1] was 0.8906 µM. Further, the “Serratia marcescens expressing IMP-1 (CL5741) MITC95” value in data set [2] turned out to be 0.6406 µM. Moreover, the “Escherichia coli expressing NDM-1 (CLB30016) MITC95” value in data set [3] was found to be 0.25 µM. Besides, in data set [4], the “P. aeruginosa expressing IMP-1, efflux− (MB9799) MITC95” value was found to be 0.6406 µM. The pIC50 is 9.81 in data set [5], 9.01 in data set [6] and 9.68 in data set [7]. In addition, the “P. aeruginosa expressing IMP-1, efflux+ (MB9798) MITC95” value in data set [8] amounted to 0.6406 µM. Moreover, in data set [8], the Efflux ratio is 1.00.

Regarding `Nc1nc2cccc(-c3ccc(S(=O)(=O)C4CNC4)c(S(N)(=O)=O)c3-c3nn[nH]n3)c2s1` [Example 26, 3-(2-aminobenzo[d]thiazol-7-yl)-6-(azetidin-3-ylsulfonyl)-2-(2H-tetrazol-5-yl)benzenesulfonamide], in data set [1], the “Klebsiella pneumoniae expressing VIM-1 (IHMA599644) MITC95” value is 3.125 µM. In addition, the “Serratia marcescens expressing IMP-1 (CL5741) MITC95” value in data set [2] was 3.125 µM. Also, the “Escherichia coli expressing NDM-1 (CLB30016) MITC95” value in data set [3] is 1.563 µM. The “P. aeruginosa expressing IMP-1, efflux− (MB9799) MITC95” value in data set [4] was found to be 1.563 µM. For the same compound, the values for the pIC50 in data set [5], in data set [6] and in data set [7] were 10.54, 9.18 and 9.80, respectively. In data set [8], the “P. aeruginosa expressing IMP-1, efflux+ (MB9798) MITC95” value worked out at 3.125 µM. Also, the Efflux ratio in data set [8] was 2.00.

As for `C[C@H](CN)S(=O)(=O)c1ccc(-c2cccc3nc(N)[nH]c23)c(-c2nn[nH]n2)c1S(N)(=O)=O` [Example 277, 3-(2-amino-3H-benzo[d]imidazol-4-yl)-6-((R)-1-aminopropan-2-ylsulfonyl)-2-(2H-tetrazol-5-yl)benzenesulfonamide], the “Klebsiella pneumoniae MITC95” value in data set [1] came to 1.563 µM. For the same compound, the “Serratia marcescens MITC95” value in data set [2] is 0.7813 µM. In addition, the “Escherichia coli MITC95” value in data set [3] was 0.3906 µM. Further, the “P. aeruginosa expressing IMP-1, efflux− (MB9799) MITC95” value in data set [4] came to 0.7813 µM. The pIC50 in data set [5] is 9.28; in data set [6], 8.86; in data set [7], 9.44. Moreover, the “P. aeruginosa expressing IMP-1, efflux+ (MB9798) MITC95” value in data set [8] turned out to be 1.563 µM. Also, the Efflux ratio in data set [8] is listed as 2.00.

As for `Nc1nc2c(-c3ccc(S(=O)(=O)[C@@H]4CN[C@H](CO)C4)c(S(N)(=O)=O)c3-c3nn[nH]n3)cccc2s1` [Example 349, 3-(2-Aminobenzo[d]thiazol-4-yl)-6-(((3 S,5S)-5-(hydroxymethyl)pyrrolidin-3-yl)sulfonyl)-2-(2H-tetrazol-5-yl)benzenesulfonamide], in data set [1], the “Klebsiella pneumoniae MITC95” value was determined as 3.125 µM. Further, in data set [2], the “Serratia marcescens MITC95” value came to 1.563 µM. The “Escherichia coli MITC95” value in data set [3] turned out to be 3.125 µM. For the same compound, in data set [4], the “P. aeruginosa expressing IMP-1, efflux− (MB9799) MITC95” value is 1.563 µM. For the same compound, the pIC50 in data set [5] is 10.18; in data set [6], 9.66; in data set [7], 9.34. Further, the “P. aeruginosa expressing IMP-1, efflux+ (MB9798) MITC95” value in data set [8] was 1.563 µM. In data set [8], the Efflux ratio amounted to 1.00.

`Nc1n[nH]c2c(-c3ccc(S(=O)(=O)C4CNC4)c(S(N)(=O)=O)c3-c3nn[nH]n3)cccc12` [Example 21, 3-(3-amino-1H-indazol-7-yl)-6-(azetidin-3-ylsulfonyl)-2-(2H-tetrazol-5-yl)benzenesulfonamide]: the “Klebsiella pneumoniae expressing VIM-1 (IHMA599644) MITC95” value in data set [1] amounted to 3.125 µM. For the same compound, in data set [2], the “Serratia marcescens expressing IMP-1 (CL5741) MITC95” value worked out at 3.125 µM. In addition, the “Escherichia coli expressing NDM-1 (CLB30016) MITC95” value in data set [3] stood at 1.563 µM. In addition, in data set [4], the “P. aeruginosa expressing IMP-1, efflux− (MB9799) MITC95” value is 1.563 µM. The pIC50 is 9.82 in data set [5], 9.19 in data set [6] and 9.35 in data set [7]. Also, the “P. aeruginosa expressing IMP-1, efflux+ (MB9798) MITC95” value in data set [8] was found to be 1.563 µM. For the same compound, the Efflux ratio in data set [8] is 1.00.

As to `NCCS(=O)(=O)c1ccc(-c2cccc3[nH]c(C(F)(F)CN)nc23)c(-c2nn[nH]n2)c1S(N)(=O)=O` [Example 307, 3-(2-(2-amino-1,1-difluoroethyl)-1H-benzo[d]imidazol-4-yl)-6-((2-aminoethyl)sulfonyl)-2-(2H-tetrazol-5-yl) benzenesulfonamide], the “Klebsiella pneumoniae MITC95” value in data set [1] was 0.7813 µM. In data set [2], the “Serratia marcescens MITC95” value is 0.7813 µM. Also, the “Escherichia coli MITC95” value in data set [3] was 0.7813 µM. In addition, the “P. aeruginosa expressing IMP-1, efflux− (MB9799) MITC95” value in data set [4] came out at 0.3906 µM. In addition, the pIC50 in data set [5] was 10.43; in data set [6], 10.06; in data set [7], 10.51. Also, the “P. aeruginosa expressing IMP-1, efflux+ (MB9798) MITC95” value in data set [8] came out at 0.3906 µM. Besides, the Efflux ratio in data set [8] came out at 1.00.

Take `NS(=O)(=O)c1c(S(=O)(=O)C2CNC2)ccc(-c2cnc3ccccc3c2)c1-c1nnn[nH]1.O=C(O)C(F)(F)F` [Example 98, 3-((4-(quinolin-3-yl)-2-sulfamoyl-3-(1H-tetrazol-5-yl)phenyl)sulfonyl)azetidin-1-ium 2,2,2-trifluoroacetate]: the “Klebsiella pneumoniae expressing VIM-1 (IHMA599644) MITC95” value in data set [1] was determined as 3.125 µM. For the same compound, the “Serratia marcescens expressing IMP-1 (CL5741) MITC95” value in data set [2] came out at 3.125 µM. The “Escherichia coli expressing NDM-1 (CLB30016) MITC95” value in data set [3] amounted to 3.125 µM. In data set [4], the “P. aeruginosa expressing IMP-1, efflux− (MB9799) MITC95” value was determined as 1.563 µM. Besides, the pIC50 was 9.40 in data set [5], 8.70 in data set [6] and 9.62 in data set [7]. Moreover, in data set [8], the “P. aeruginosa expressing IMP-1, efflux+ (MB9798) MITC95” value stood at 25 µM. Besides, the Efflux ratio in data set [8] worked out at 15.99.

With `Nc1cccc(-c2ccc(S(=O)(=O)C3CNC3)c(S(N)(=O)=O)c2-c2nn[nH]n2)n1` [Example 223, 3-(6-aminopyridin-2-yl)-6-(azetidin-3-ylsulfonyl)-2-(2H-tetrazol-5-yl)benzenesulfonamide], the “Klebsiella pneumoniae expressing VIM-1 (IHMA599644) MITC95” value in data set [1] was determined as 6.25 µM. Further, in data set [2], the “Serratia marcescens expressing IMP-1 (CL5741) MITC95” value came to 3.125 µM. The “Escherichia coli expressing NDM-1 (CLB30016) MITC95” value in data set [3] came out at 0.7813 µM. In addition, in data set [4], the “P. aeruginosa expressing IMP-1, efflux− (MB9799) MITC95” value was found to be 3.125 µM. In addition, the pIC50 in data set [5] is 8.60; in data set [6] it was 7.99; in data set [7], 8.50. Further, the “P. aeruginosa expressing IMP-1, efflux+ (MB9798) MITC95” value in data set [8] turned out to be 6.25 µM. For the same compound, the Efflux ratio in data set [8] turned out to be 2.00.

For `NCCS(=O)(=O)c1ccc(-c2cccc3sc(N)nc23)c(-c2nn[nH]n2)c1S(N)(=O)=O` [Example 313, 3-(2-aminobenzo[d]thiazol-4-yl)-6-((2-aminoethyl)sulfonyl)-2-(2H-tetrazol-5-yl)benzenesulfonamide], the “Klebsiella pneumoniae MITC95” value in data set [1] was 2.009 µM. In addition, the “Serratia marcescens MITC95” value in data set [2] was 1.228 µM. In data set [3], the “Escherichia coli MITC95” value was 1.618 µM. In addition, the “P. aeruginosa expressing IMP-1, efflux− (MB9799) MITC95” value in data set [4] came to 0.8929 µM. Also, the negative logarithm of the IC50 (pIC50) in data set [5] was 9.81; in data set [6], 9.59; in data set [7] it was 9.64. Moreover, in data set [8], the “P. aeruginosa expressing IMP-1, efflux+ (MB9798) MITC95” value was 0.6138 µM. Further, the Efflux ratio in data set [8] turned out to be 0.69.

(Values after patent publication US10227331B2 (priority 2015, dated 2019).)
